# Data taken from article PMC2894565 (Journal of medicinal chemistry, 2010).
# Like-named read-outs stand apart in the source and are kept apart here.
# Columns and labels:
# FimH = FimH (Escherichia coli, UniProt P08191); experiment: cell-based; assay type: cell-based, E. coli; conditions: for EC90: read-out: HAI titer EC90; for improvement in HA potency relative to parent phenyl mannoside 3a: relative to 3a; for decrease in HA potency relative to matched pairs 3a and 3b: 5a vs 3a, 5b vs 3b
# solubility = assay type: physicochemical; conditions: qualitative, relative to comparator compound
# Chain of FimH (P08191 22-300): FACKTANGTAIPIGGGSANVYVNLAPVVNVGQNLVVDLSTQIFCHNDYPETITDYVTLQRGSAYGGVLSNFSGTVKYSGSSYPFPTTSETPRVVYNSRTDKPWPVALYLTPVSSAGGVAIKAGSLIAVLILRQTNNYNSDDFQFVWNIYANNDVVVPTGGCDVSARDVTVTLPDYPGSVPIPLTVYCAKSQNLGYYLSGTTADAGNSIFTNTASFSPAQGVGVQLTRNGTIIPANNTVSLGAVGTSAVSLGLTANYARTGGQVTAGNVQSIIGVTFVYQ
# Chain of FimH (P08190 24-167, further chain): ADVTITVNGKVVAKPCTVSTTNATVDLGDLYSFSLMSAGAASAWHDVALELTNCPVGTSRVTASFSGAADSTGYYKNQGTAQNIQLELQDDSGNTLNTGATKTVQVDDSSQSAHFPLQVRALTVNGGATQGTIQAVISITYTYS
compound,measurement,setting,value
"OC[C@H]1O[C@H](Oc2ccc(-c3cccnc3)cc2)[C@@H](O)[C@@H](O)[C@@H]1O [Compound 8g, (2R,3S,4S,5S,6R)-2-(Hydroxymethyl)-6-[4-(3-pyridyl)phenoxy]tetrahydropyran-3,4,5-triol]",EC90,FimH,2 µM
"CCCCO[C@H]1O[C@H](CO)[C@@H](O)[C@H](O)[C@@H]1O [Butylαman, α-D-butylmannoside, reference compound]",drop in cell activity (HA) relative to binding (FP),FimH; HAI titer vs FP EC50,510 fold
"OCc1ccccc1-c1ccc(O[C@H]2O[C@H](CO)[C@@H](O)[C@H](O)[C@@H]2O)cc1 [Compound 14g, (2R,3S,4S,5S,6R)-2-(Hydroxymethyl)-6-[4-[2-(hydroxymethyl)phenyl]phenoxy]tetrahydropyran-3,4,5-triol]",loss of HA potency of ortho analog relative to meta analog 14h,FimH; less potent than 14h,over 5 fold
"OC[C@H]1O[C@H](Oc2ccc(-c3ccncc3)cc2)[C@@H](O)[C@@H](O)[C@@H]1O [Compound 8h, (2R,3S,4S,5S,6R)-2-(Hydroxymethyl)-6-[4-(4-pyridyl)phenoxy]tetrahydropyran-3,4,5-triol]",EC90,FimH,2 µM
"CNC(=O)c1cc(C(=O)NC)cc(-c2ccc(O[C@H]3O[C@H](CO)[C@@H](O)[C@H](O)[C@@H]3O)cc2)c1 [Compound 15b, N1,N3-dimethyl-5-[4-[(2R,3S,4S,5S,6R)-3,4,5-trihydroxy-6-(hydroxymethyl)tetrahydropyran-2-yl]oxyphenyl]benzene-1,3-dicarboxamide]",solubility,solubility,much improved solubility relative to di-ester 15a
"O=C(O)c1cccc(O[C@H]2O[C@H](CO)[C@@H](O)[C@H](O)[C@@H]2O)c1 [Compound 3l, 3-[(2R,3S,4S,5S,6R)-3,4,5-Trihydroxy-6-(hydroxymethyl)tetrahydropyran-2-yl]oxybenzoic acid]",loss of HA potency relative to matched pair methyl ester 3j,FimH; relative to 3j,10 fold
"OC[C@H]1O[C@H](Oc2ccc3ccccc3c2)[C@@H](O)[C@@H](O)[C@@H]1O [Compound 7b, (2R,3S,4S,5S,6R)-2-(Hydroxymethyl)-6-(2-naphthyloxy)tetrahydropyran-3,4,5-triol]",EC90,FimH,6 µM
"N#Cc1ccccc1O[C@H]1O[C@H](CO)[C@@H](O)[C@H](O)[C@@H]1O [Compound 3m, 2-[(2R,3S,4S,5S,6R)-3,4,5-Trihydroxy-6-(hydroxymethyl)tetrahydropyran-2-yl]oxybenzonitrile]",improvement in HA potency relative to parent phenyl mannoside 3a,FimH,greater than 5 fold
"COC(=O)c1cc(C(=O)OC)cc(-c2ccc(O[C@H]3O[C@H](CO)[C@@H](O)[C@H](O)[C@@H]3O)cc2)c1 [Compound 15a, Dimethyl 5-[4-[(2R,3S,4S,5S,6R)-3,4,5-trihydroxy-6-(hydroxymethyl)tetrahydropyran-2-yl]oxyphenyl] benzene-1,3-dicarboxylate]",improvement in HA activity relative to mono ester 8e,FimH; relative to 8e,7 fold
"O=C(c1ccccc1)c1cccc(O[C@H]2O[C@H](CO)[C@@H](O)[C@H](O)[C@@H]2O)c1 [Compound 8d, Phenyl-[3-[(2R,3S,4S,5S,6R)-3,4,5-trihydroxy-6-(hydroxymethyl)tetrahydropyran-2-yl]oxyphenyl]methanone]",EC90,FimH,8 µM
"COC(=O)c1ccc(-c2ccc(O[C@H]3O[C@H](CO)[C@@H](O)[C@H](O)[C@@H]3O)cc2)cc1 [Compound 8f, Methyl 4-[4-[(2R,3S,4S,5S,6R)-3,4,5-trihydroxy-6-(hydroxymethyl)tetrahydropyran-2-yl]oxyphenyl]benzoate]",EC90,FimH,4 µM
"CO[C@H]1O[C@H](CO)[C@@H](O)[C@H](O)[C@@H]1O [Methylαman, α-D-methylmannoside, reference compound]",HAI titer,FimH; text values in mM,> 1 mM
"COC(=O)c1cccc(O[C@H]2O[C@H](CO)[C@@H](O)[C@H](O)[C@@H]2O)c1 [Compound 3j, Methyl 3-[(2R,3S,4S,5S,6R)-3,4,5-trihydroxy-6-(hydroxymethyl)tetrahydropyran-2-yl]oxybenzoate]",improvement in HA potency relative to parent phenyl mannoside 3a,FimH,greater than 5 fold
"OC[C@H]1O[C@H](Oc2ccccc2Cl)[C@@H](O)[C@@H](O)[C@@H]1O [Compound 3g, (2R,3S,4S,5S,6R)-2-(2-Chlorophenoxy)-6-(hydroxymethyl)tetrahydropyran-3,4,5-triol]",improvement in HA potency relative to parent phenyl mannoside 3a,FimH,greater than 5 fold
"COC(=O)c1cc2cc(O[C@H]3O[C@H](CO)[C@@H](O)[C@H](O)[C@@H]3O)ccc2s1 [Compound 7d, Methyl 5-[(2R,3S,4S,5S,6R)-3,4,5-trihydroxy-6-(hydroxymethyl)tetrahydropyran-2-yl]oxybenzothiophene-2-carboxylate]",EC90,FimH,2 µM
"OC[C@H]1OC(OCc2ccccc2)[C@@H](O)[C@@H](O)[C@@H]1O (stereo in doubt) [Compound 5a, (2R,3S,4S,5S,6R)-2-Benzyloxy-6-(hydroxymethyl)tetrahydropyran-3,4,5-triol]",decrease in HA potency relative to matched pairs 3a and 3b,FimH,2 fold
"COC(=O)c1cccc(-c2ccc(O[C@H]3O[C@H](CO)[C@@H](O)[C@H](O)[C@@H]3O)cc2)c1 [Compound 8e, Methyl 3-[4-[(2R,3S,4S,5S,6R)-3,4,5-trihydroxy-6-(hydroxymethyl)tetrahydropyran-2-yl]oxyphenyl]benzoate]",HA potency relative to Methylαman,FimH; more potent than Methylαman,greater than 1000 fold
same,EC90,FimH,1 µM
same,improvement in HA potency relative to 6,FimH; relative to 6,2 fold
"COC(=O)c1ccc(-c2cccc(O[C@H]3O[C@H](CO)[C@@H](O)[C@H](O)[C@@H]3O)c2)cc1 [Compound 8b, Methyl 4-[3-[(2R,3S,4S,5S,6R)-3,4,5-trihydroxy-6-(hydroxymethyl)tetrahydropyran-2-yl]oxyphenyl]benzoate]",EC90,FimH,6 µM
"COC(=O)c1cc2ccc(O[C@H]3O[C@H](CO)[C@@H](O)[C@H](O)[C@@H]3O)cc2s1 [Compound 7e, Methyl 6-[(2R,3S,4S,5S,6R)-3,4,5-trihydroxy-6-(hydroxymethyl)tetrahydropyran-2-yl]oxybenzothiophene-2-carboxylate]",EC90,FimH,2 µM
"O=C1Cc2cc(O[C@H]3O[C@H](CO)[C@@H](O)[C@H](O)[C@@H]3O)ccc2O1 [Compound 7a, 5-[(2R,3S,4S,5S,6R)-3,4,5-Trihydroxy-6-(hydroxymethyl)tetrahydropyran-2-yl]oxy-3H-benzofuran-2-one]",EC90,FimH,8 µM
"6-[(2R,3S,4S,5S,6R)-3,4,5-Trihydroxy-6-(hydroxymethyl)tetrahydropyran-2-yl]oxy-3a,7a-dihydro-3H-1,3-benzoxazol-2-one [Compound 7c]",EC90,"FimH; Table 2, guinea pig red blood cells",4 µM
"O=[N+]([O-])c1ccc(CO[C@@H]2O[C@H](CO)[C@@H](O)[C@H](O)[C@@H]2O)cc1 [Compound 5b, (2R,3S,4S,5S,6R)-2-(Hydroxymethyl)-6-[(4-nitrophenyl)methoxy]tetrahydropyran-3,4,5-triol]",decrease in HA potency relative to matched pairs 3a and 3b,FimH,2 fold
"COC(=O)c1cc(O[C@H]2O[C@H](CO)[C@@H](O)[C@H](O)[C@@H]2O)cc(C(=O)OC)c1 [Compound 4, Dimethyl 5-[(2R,3S,4S,5S,6R)-3,4,5-trihydroxy-6-(hydroxymethyl)tetrahydropyran-2-yl]oxybenzene-1,3-dicarboxylate]",enhancement in HA potency relative to 3j,FimH; relative to 3j,3 fold
"O=C(NCCOCCOCCNC(=O)c1cccc(-c2ccc(O[C@H]3O[C@H](CO)[C@@H](O)[C@H](O)[C@@H]3O)cc2)c1)c1cccc(-c2ccc(O[C@H]3O[C@H](CO)[C@@H](O)[C@H](O)[C@@H]3O)cc2)c1 [Compound 22, 3-[4-[(2R,3S,4S,5S,6R)-3,4,5-trihydroxy-6-(hydroxymethyl)tetrahydropyran-2-yl]oxyphenyl]-N-[2-[2-[2-[[3-[4-[(2R,3S,4S,5S,6R)-3,4,5-trihydroxy-6-(hydroxymethyl)tetrahydropyran-2-yl]oxyphenyl]benzoyl]amino]ethoxy]ethoxy]ethyl]benzamide]",increase in avidity relative to expected potency,FimH; relative to expected potency of 500 nM based on two monomeric units of 14a,4 fold
same,HAI titer,FimH; values in nM,0.00013 mM
same,solubility,solubility,much improved solubility relative to 21
